Results from paper PMC10525312, “Identification of a Novel Bioactive Peptide Derived from Frozen Chicken Breast Hydrolysate and the Utilization of Hydrolysates as Biopreservatives” (Biology, 2023).

Assays:
[1] = commercial food antioxidants; cited from earlier work
From the text: Free radicals can be produced as a result of lipid oxidation, causing major health issues and having a negative impact on food quality. One of the solutions to prevent lipid oxidation is the use of protein hydrolysates.

ACE = settings: peptides after in vitro gastrointestinal digestion of chicken meat; read-out: ACE inhibitory activity IC50; cited from earlier work
From the text: The ACE inhibitory activity of C25 was more po ...

[2] = test system: Pseudomonas putida ATCC 12633^T; test: MIC, broth microdilution assay, Pseudomonas putida; type: cell-based; settings: C25, Luria Bertani medium, OD 620 nm, twofold dilutions
From the text: (§1) The following indicator bacteria were used to determine the minimum inhibitory concentrations (MICs) as described by Wiegand et al. and Maky and Zendo [14] by using a broth microdilution assay. Weizmannia (Bacillus) coagulans JCM 2257^T, Salmonella enterica serovar Typhimurium NBRC 13243^T, Listeria innocua ATCC 33090^T, Proteus vulgaris F24B [24] and Escherichia coli JM109 were cultivated in Tryptic Soy Broth (BD, Sparks, MD, USA) supplemented with 0.6% yeast extract. Enterococcus faecalis JCM 5803^T was cultivated in MRS medium (Oxoid, Basingstoke, UK), while Pseudomonas putida ATCC 12633^T was cultivated in Luria Bertani medium (BD). Briefly, the bacterial inhibition was assessed at an optical density at 620 nm using an Infinite F200 Pro microplate reader (Tecan, Männedorf, Switzerland) after the indicator strains were cultured with twofold serial dilutions of chicken hydrolysates and C25.

[3] = test system: Enterococcus faecalis JCM 5803^T; test: MIC, broth microdilution assay, Enterococcus faecalis; type: cell-based; settings: C25, MRS medium, OD 620 nm, twofold dilutions
From the text: as §1

[4] = test system: Weizmannia coagulans JCM 2257^T; test: MIC, broth microdilution assay, Weizmannia coagulans; type: cell-based, Weizmannia (Bacillus) coagulans; settings: C25, Tryptic Soy Broth + 0.6% yeast extract, OD 620 nm, twofold dilutions
From the text: as §1

[5] = test system: Salmonella enterica serovar Typhimurium NBRC 13245^T; test: MIC, broth microdilution assay, Salmonella Typhimurium; type: cell-based; settings: C25, Tryptic Soy Broth + 0.6% yeast extract, OD 620 nm, twofold dilutions
From the text: as §1

[6] = DPPH antioxidant activity assay (DPPH antioxidant assay kit); type: biochemical; settings: 25 °C for 30 min in the dark, absorbance 450 nm
Description: The antioxidant activity of the chicken hydrolysate and C25 was assessed utilizing a DPPH antioxidant assay kit (Dojindo Laboratories) as described in the instructions provided by the manufacturer and as elaborated by Maky and Zendo [14]. Briefly, 20 µL of the investigated samples was applied to a microtiter plate and 80 µL of assay buffer, 100 µL of ethanol and 100 µL of DPPH working solution were mixed with the samples. Then, the plate was incubated at 25 °C for 30 min in the dark. The absorbance was measured by using a Sunrise microplate absorbance reader (Tecan) at 450 nm.

[7] = test system: Listeria innocua ATCC 33090^T; test: MIC, broth microdilution assay, Listeria innocua; type: cell-based; settings: C25, Tryptic Soy Broth + 0.6% yeast extract, OD 620 nm, twofold dilutions
From the text: as §1

## COc1ccc(O)c(C(C)(C)C)c1 [Butylated hydroxyanisole (BHA), Butylated hydroxyanisole]
[1]
  Antioxidant activity IC50: 112.05 µg/mL

## Cc1cc(C(C)(C)C)c(O)c(C(C)(C)C)c1 [butylated hydroxytoluene (BHT), butylated hydroxytoluene]
[1]
  Antioxidant activity IC50: 202.35 µg/mL

## ELFTT
ACE
  IC50: 6.35 µM

## H-IHAEEILDIRGNPTVEVDLHTAKGH-OH [C25]
[2]
  MIC (class symbol): NA ^2 (NA ^2 > 24 μg/mL)
[3]
  MIC (class symbol): NA ^2 (NA ^2 > 24 μg/mL)
[4]
  MIC (class symbol): NA ^2 (NA ^2 > 24 μg/mL)
[5]
  MIC (class symbol): NA ^2 (NA ^2 > 24 μg/mL)
[6]
  Antioxidant activity (in words): no activity was observed
[7]
  MIC (class symbol): NA ^2 (NA ^2 > 24 μg/mL)

## KPLL
ACE
  IC50: 12 µM
